Assay results as given in patent US5932483A, “Synthetic peptide and its uses” (Northwestern University, priority 1996, dated 1999).
Several values for one entry are separate records, joined by “and”; a condition that tells them apart may be missing. Equal values may be shown once. Read-outs that look alike come from different tables or passages of the source. No end group written: not given here.

How the values were obtained:
[1] = system: sensitized sheep erythrocytes (SRBCs), human serum as complement; experiment: Sheep red blood cell lysis assay (SRBC assay); type: cell-based
[2] = system: pig aorta endothelial cells (PAECs), human serum; experiment: Chromium release assay (PAEC assay); type: cell-based
Protocol: Culture plates (Falcon 24-well plates, Becton Dickinson, Lincoln Park, N.J.) were coated by addition of 0.5 ml/well of 2% gelatin (Type B, from bovine skin, Sigma Chemical Co.) diluted 1:10 in Hanks buffered salt solution (Gibco BRL, Grand Island, N.Y.), followed by incubation for 15 min at room temperature. The gelatin solution was removed, and 125×10^3 pig aorta endothelial cells (PAECs, Cell Systems, Kirkland, Wash.) in 2 ml of cell culture medium (CCM, Dulbecco's modified Eagle's medium (DMEM) with high glucose (Gibco BRL) containing 20% defined fetal bovine serum (FBS, HyClone Laboratories, Logan, Utah) that had been heat inactived for 30 min at 56° C., 1%(v/v) L-glutamine (200 mM, Gibco BRL) and penicillin G sodium (10,000 units/ml)/streptomycin sulfate (10,000 μg/ml in 0.85% saline, Gibco BRL)] were added per well. The plate was centrifuged in a model GS-6R Beckman table top centrifuge at 20×g for 2 min with the brake off to settle the cells onto the gelatin in a even monolayer, after which the plate was incubated at 37° C. in 5% CO2 -95% air. After 4 hours, cell attachment had occurred, and the CCM was removed and replaced with 2 ml of fresh CCM. In 2-4 days the PAECs had grown to 80-100% confluence and were used in the complement mediated chromium release assay.
The PAECs were washed 3 times with 1 ml of serum free medium (SFM), leaving the SFM on the cells for 5 min each time. Chromium radioisotope (^51 Cr, NaCrO4, Amersham Corp., Arlington Heights, Ill.) was diluted in SFM to give 40 μCi/ml, and 100 μl were added to each well of the PAEC culture plate. The plate was incubated for 2 hours at 37° C. in 5% CO2 -95% air. The wells were washed three times with 1 ml of SFM. Then, 1 ml of PBS was added to each well, and the plate was incubated at 37° C. for 30 min to help reduce ^51 Cr background.
The various peptide inhibitors (diluted in SFM) were added (300 μl/well) and incubated with the PAECs at 37° C. for 30 min. Undiluted human serum (HS, 100 μl) or 100 μl of heat inactivated human serum (HIHS) was added to each well, and the plate was incubated at 37° C. for 1 hour. Supernatant (200 μl) was removed from each well and added to 200 μl of scintillation cocktail (OptiPhase `Supermix`, Wallac Inc., Turku, Finland) previously added to each well of a 24-well polyethylene terephtalate reading plate (Wallac Inc.), and the plate was sealed with an acetate plate sealer (Dynatech Laboratories, Chantilly, Va.). The reading plate was placed on a shaker for 5 min to obtain a homogeneous mixture. Radioactivity (CPMs) of the wells was counted for 2 min using the 1450 MicroBeta PLUS plate reader (Wallac Inc.).
Total counts of ^51 Cr were determined from 200 μl aliquots taken from the wells to which 100 μl of 5% Triton X-100 (Sigma Chemical Co.) had been added. Total complement mediated lysis was determined from wells treated with HS alone, and background counts were determined from wells treated with HI-HS alone or with peptide alone (no HS). The average background was subtracted from all well counts, and the percent inhibition calculated as total lysis minus lysis with inhibitor/total lysis multiplied by 100. All experimental points were obtained in triplicate, and the data were analyzed in the same manner as the data from the SRBC assays.

[3] = molecular target: binding of rabbit Ig-HRP to solid phase C1q; experiment: Inhibition of binding of Ig-HRP to solid phase C1q
Protocol: C1q (gift of Dr. Lawrence Potempa, Immtech International Inc., Evanston, Ill.) diluted to 10 μg/ml in coating buffer was placed in the wells of a microtiter plate (100 μl/well) and incubated for 2 hours at 25° C. The uncoated surfaces of the wells were blocked by adding 340 μl PBSC and incubating the plate for 1 hour at 25° C., followed by washing 3 times with PBSC. Dilutions of Ig-HRP in C1q buffer (50 mM Tris, pH 7.2, 27 mM NaCl, 1 mM CaCl2, 0.01% (wt/v) Thimerosal) were incubated in the wells (100 μl/well) for 1 hour at 25° C. followed by washing 3 times with C1q buffer. OPD substrate buffer was then added (100 μl/well), and the colored product was measured at 414 nm in a Titertek Multiskan plate reader.
C1q was coated onto the surface of the wells of a microtiter plate as described in Part C. […] OPD substrate buffer (100 μl/well) was then added and the colored product measured at 414 nm in a Titertek Mutiskan plate reader.

[4] = system: human C1q binding to PAECs; experiment: Immunohistochemical staining of PAECs for binding of human C1q; type: cell-based; conditions: CBP2 1.2 mM
Protocol: PAECs (1×10^4) in 1 ml of CCM were added to each well of a 4-chamber culture slide (Labtek, Nunc, Naperville, Ill.), and the cells were grown to confluence (incubation for 3 days at 37° C. in 5% CO2 -95% air). The medium was removed, and the slide was washed with PBS (10 mM phosphate buffered saline, pH 7.4, containing 120 mM NaCl and 2.7 mM KCl, Sigma Chemical Co.) in a swirling motion for 5 sec. This was repeated with distilled water and 100% ethanol. The slide was tapped dry and immersed in pre-chilled (-20° C.) acetone for 20 min and then air dried.
HI-HS was added to the wells, and the slide was incubated for 15 min at 37° C. to allow human IgG and IgM antibodies to bind to PAEC epitopes. The HI-HS was removed, and the wells were washed 3 times with PBS. C1q or C1q plus peptide in PBS containing 1% bovine serum albumin (BSA, Sigma Chemical Co.) (PBSA) was then added, and the slide was incubated for 15 min at room temperature. The solutions were removed, and the wells were washed 3 times with PBS. Blocking serum was added [10% donkey serum (The Binding Site, Birmingham, England) in PBS], and the slide was incubated for 20 minutes at room temperature. […] Staining of the cells was analyzed on a Zeiss Axioskop (Carl Zeiss, Oberkochen, Germany) with a wide band FITC filter.

[5] = system: guinea pig hearts transplanted into C6 deficient PVG rats; experiment: Heterotopic heart transplantation; type: in vivo, rat; conditions: pump 2ML4 (15.6 mg CBP2) plus i.v. 15.6 mg on day 2; 2 rats, individual values
Protocol: Four to six week old guinea pigs (GP, Harlan, Indianapolis, Ind.) hearts were transplanted into C6 deficient PVG rats (B&K, Kent, Wash.) by a modification of the technique described by Ono and Lindsay (Journal of Thoracic Cardiovascular Surgery, 57, 225, 1969). Seven of the rats receiving GP hearts were not treated, 8 additional rats receiving GP hearts were treated with a single pre-transplant intravenous injection of a 3 ml cocktail of CBP3 [SEQ ID NO:4] (0.67 mg/ml) and 1.03 mg/ml of AEK [SEQ ID NO:5]. CBP3, 15.4 mg, was dissolved in 1.1 ml of 60% DMF in H2 O and AEK, 10 mg, was dissolved on 0.5 ml H2 O. Two hundred μl of CBP3 and 100 μl of AEK were added to 2.7 ml of 1:5 diluted (in PBS) heat-inactivated PVG C6 deficient rat serum. The GP transplanted hearts were monitored several times daily, and the times noted when the hearts stopped beating.
Two additional PVG C6 deficient rats were transplanted with GP hearts.
In a separate experiment, two C6 deficient PVG rats were transplanted with GP hearts.

HRP enzyme = molecular target: T1, HRP enzyme (Armoracia rusticana, UniProt P00433); experiment: Control: effect of CBP2 on the HRP enzyme; type: biochemical, horseradish; conditions: 50 μM CBP2, 3 hours 37° C.
T1 construct: purchased Zymed Laboratories, Inc
Protocol: 1. […] Aliquots of 100 μl were placed in the wells of a microtiter plate and an equal volume of OPD substrate buffer was added, and the colored product was measured at 414 nm.

[6] = system: PAP binding to solid phase CBP2; experiment: Elution or inhibition of PAP binding to the CBP2 column by solution peptide; set-up: species or system rabbit; conditions: for PAP binding to solid phase CBP2 after pre-incubation with peptide: 0.1 mM peptide, 1 hour 25° C., PAP 20 μg/ml; for elution of bound PAP from CBP2 column by peptide wash: 3 ml of 336.2 μg/ml CBP2 or equimolar LHRH
Protocol: An additional 6 ml of C1q buffer was used to wash the column followed by 3 ml of 2% (v/v) acetic acid and then with 6 ml of C1q buffer to completely wash the column.
The sample was then eluted with 21 ml C1q buffer followed by 3 ml of 2% (v/v) acetic acid and then 6 ml C1q buffer. The column fractions were assayed for the presence of peroxidase as described above in Part A, and the concentration of PAP was calculated from the standard curve data.
This was not the case, however, since similar concentrations were used for column elution as for the pre-incubation studies. […] Thus, the effect of aggregates, if they formed, was of little significance.

[7] = system: binding of rabbit Ig-HRP by solid phase Protein A; experiment: Inhibition of binding of Ig-HRP to solid phase Protein A
Protocol: Protein A (recombinant Protein A from Repligen, Cambridge, Mass.) diluted to 1 μg/ml in coating buffer (0.1M NaHCO3, pH 9.0) was incubated in the wells of a microtiter plate (100 μl per well) for 2 hours at 37° C. Uncoated surfaces of the wells were blocked by adding 340 μl PBSC (9 mM Na2 HPO4, 1 mM NaH2 PO4, pH 7.2, 154 mM NaCl, 1 mg/ml casein or ovalbumin, and 0.01% thimerosal), incubating the plate 1 hour at 37° C., and then washing the wells 3 times with PBSCT (PBSC plus 0.1% Tween 20 (polyoxyethylene sorbitan monolaurate)). Dilutions of rabbit immunoglobulin labeled with horseradish peroxidase (Ig-HRP) (Zymed Laboratories, Inc., South San Francisco, Calif.) in PBS (9 mM Na2 HPO4, 1 mM NaH2 PO4, pH 7.2, 154 mM NaCl) were incubated in the wells (100 μl per well) for 2 hours at 37° C. followed by washing 3 times with PBS. OPD substrate buffer (0.8 mg/ml o-phenylenediamine, 0.1M Na2 HPO4, 0.05M sodium citrate, pH 5.5, plus 0.15% (v/v) H2 O2) was then added to the wells (100 μl/well), and the resultant colored product was measured with a Titertek Multiskan plate reader using a 414 nm filter.
OPD substrate buffer was then added (100 μl/well), and the resulting colored product was measured at 414 nm in a Titertek Multiskan plate reader.
8. […] Then the inhibition assay using solid phase Protein A was performed as described above.

[8] = highest concentration (1 mM) tested
[9] = same concentration range as CBP2

Sequence of PAP binding to solid phase CBP2 (P01870 whole entry): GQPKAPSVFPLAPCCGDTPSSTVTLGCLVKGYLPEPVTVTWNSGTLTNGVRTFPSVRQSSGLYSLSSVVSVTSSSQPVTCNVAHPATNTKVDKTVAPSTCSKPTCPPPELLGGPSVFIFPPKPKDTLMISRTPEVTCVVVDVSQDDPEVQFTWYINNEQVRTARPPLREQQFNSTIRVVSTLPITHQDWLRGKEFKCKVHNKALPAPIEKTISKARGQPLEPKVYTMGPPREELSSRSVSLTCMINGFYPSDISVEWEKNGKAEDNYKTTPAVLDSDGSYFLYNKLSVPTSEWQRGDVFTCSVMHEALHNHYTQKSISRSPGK
T1 sequence (P00433 31-338 limits assumed): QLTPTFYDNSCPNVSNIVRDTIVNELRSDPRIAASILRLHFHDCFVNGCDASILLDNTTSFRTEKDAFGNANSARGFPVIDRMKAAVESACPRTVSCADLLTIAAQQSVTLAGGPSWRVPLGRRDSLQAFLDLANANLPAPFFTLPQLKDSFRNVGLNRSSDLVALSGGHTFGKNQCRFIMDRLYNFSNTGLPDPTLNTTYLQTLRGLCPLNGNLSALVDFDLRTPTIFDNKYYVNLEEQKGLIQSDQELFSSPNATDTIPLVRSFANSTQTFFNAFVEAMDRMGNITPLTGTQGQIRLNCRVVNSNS
T1 sequence (P01870 whole entry partner): as the sequence (P01870 whole entry) above
T1 sequence (P01840 whole entry partner): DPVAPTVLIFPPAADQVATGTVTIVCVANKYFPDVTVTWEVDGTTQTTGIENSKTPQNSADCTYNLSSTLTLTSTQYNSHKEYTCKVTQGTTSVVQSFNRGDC

Ac-AEAKAKA-NH2 [AEK, Ac-Ala Glu Ala Lys Ala Lys Ala-NH2]
inhibitory activity in the SRBC assay [1, 8]: no inhibitory activity
inhibitory activity in the PAEC assay [2, 8]: no inhibitory activity

C1q: complement component C1q, gift of Immtech International, liquid phase positive control
IC50 ([3]; read-out: 50% inhibition concentration for liquid phase C1q inhibiting solid phase C1q): ~10 nM

LEQGENVFLQATLLC [CBP2, C1q B chain residues 189-200 plus Leu Leu Cys at the carboxyl terminus]
C1q binding to PAECs (immunohistochemical staining) [4]: only trace binding of C1q
% Inhibition SRBC Assay +/- S.D. ([1]; 31 μM): 0.0 +/- 0.0%
% Inhibition SRBC Assay +/- S.D. ([1]; 62.5 μM): 13.5% and 13.5 +/- 9.3%
% Inhibition SRBC Assay +/- S.D. ([1]; 125 μM): 45.2 +/- 30.8%
% Inhibition SRBC Assay +/- S.D. ([1]; 250 μM): 78.0 +/- 18.3%
% Inhibition SRBC Assay +/- S.D. ([1]; 1000 μM): 97.4 +/- 2.7%
Graft Survival [5]: 4 days and 5 days
effect on the HRP enzyme (HRP enzyme): did not inhibit the HRP enzyme
PAP binding to solid phase CBP2 after pre-incubation with peptide [6]: dramatic loss of PAP binding
elution of bound PAP from CBP2 column by peptide wash [6]: small but significant PAP peak which was eluted from the column
inhibition of PAP binding to CBP2 column ([6]; PAP pre-incubated with 156 μg/ml CBP2): approximately 40%
IC50 ([3]; Ig-HRP 1:100 in C1q buffer, 25° C., read-out: 50% inhibition concentration, Ig-HRP binding to solid phase C1q): ~10000 nM
inhibition of Protein A binding of Ig-HRP (maximum) [7]: ~100%
effect of DTT on the inhibitory activity of CBP2 ([7]; 4 mg/ml DTT, 2 hours 37° C., solid phase Protein A): no effect
IC50 ([7]; Ig-HRP 1:5000 in PBS, preincubated 1 hour 37° C., read-out: concentration at 50% inhibition of Protein A binding of Ig-HRP): ~1000 nM
% Inhibition PAEC Assay +/- S.D. ([2]; 31 μM): 2.0 +/- 3.1%
% Inhibition PAEC Assay +/- S.D. ([2]; 62.5 μM): 10.6% and 10.6 +/- 13.5%
% Inhibition PAEC Assay +/- S.D. ([2]; 125 μM): 25.0 +/- 14.8%
% Inhibition PAEC Assay +/- S.D. ([2]; 250 μM): 64.4 +/- 8.4%
% Inhibition PAEC Assay +/- S.D. ([2]; 500 μM): 87.2% and 87.2 +/- 3.8%

Protein A: recombinant Protein A from Repligen, positive control in solution phase [reference compound]
IC50 ([7]; Ig-HRP binding to solid phase Protein A, read-out: 50% inhibition concentration for solution phase Protein A): 1 nM

luteinizing hormone releasing hormone [LHRH, reference compound]
PAP binding to solid phase CBP2 after pre-incubation with peptide [6]: PAP binding to the column in the range normally observed
elution of bound PAP from CBP2 column by peptide wash [6]: no significant elution of PAP
C1q inhibitory activity [3, 9]: no Protein A or C1q inhibitory activity
Protein A inhibitory activity [7, 9]: no Protein A or C1q inhibitory activity
